This is an account of results in US5500807A, “Selection method for pharmacologically active compounds” (The Regents of the University of California, priority 1992, dated 1996).

Data set [1] concerns thyroid hormone receptor in nuclei of intact GC cells. It counts as cell-based, rat. As to conditions: for competition with labeled T3, in words: intact cells.
Experimental: Cell Culture utilized GC cells obtained from the cellular culture facility at UCSF. GC cells were plated at 2-4×10^6 cells/100 mm tissue culture disk obtained from Falcone, and were maintained at 37° C., in the mixture of O2 /CO2 95/5%, in DMEM 21 medium containing 10% of fetal calf serum, obtained from J. R. Scientific, Woodland, Calif., to which 100/ml of penicillin and streptomycin, and 2 mM of glutamine were added.
After 18 hours, cells were rinsed with 1 ml of PBS for 10 minutes at 37° C. and incubated for four hours in DMEM containing 10% serum substitute solution and 2% stripped calf serum. […] Incubations were carried out at 37° C. on a Tilt table.
For data set [2], the target named is T1, human thyroid hormone receptor (Homo sapiens, UniProt P10828).
T1 sequence (P10828 1-461): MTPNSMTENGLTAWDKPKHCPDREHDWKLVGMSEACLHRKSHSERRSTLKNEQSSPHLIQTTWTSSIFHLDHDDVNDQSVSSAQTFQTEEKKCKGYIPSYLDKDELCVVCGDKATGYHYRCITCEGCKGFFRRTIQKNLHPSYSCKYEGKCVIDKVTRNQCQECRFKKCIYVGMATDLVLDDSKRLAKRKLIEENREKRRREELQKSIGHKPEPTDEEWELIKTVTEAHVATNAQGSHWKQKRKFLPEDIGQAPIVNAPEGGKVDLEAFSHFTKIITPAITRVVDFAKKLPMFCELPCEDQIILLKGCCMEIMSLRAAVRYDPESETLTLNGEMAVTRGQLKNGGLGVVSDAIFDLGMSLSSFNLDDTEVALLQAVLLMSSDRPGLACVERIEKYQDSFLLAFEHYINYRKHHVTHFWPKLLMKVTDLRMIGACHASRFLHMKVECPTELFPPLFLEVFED
Put plainly: Receptor binding to in-vitro translated human thyroid hormone receptor (FIGS. 8-13). From the text: In FIGS. 8-13, human thyroid hormone receptor was produced by in-vitro translation of RNA coding for the receptor protein. The RNA was synthesized enzymatically using a human thyroid receptor DNA clone as a template.

The subject of a further data set is thyroid hormone receptor. As to conditions: J. Clin. Invest., 83 (1989); cited from earlier work.
For data set [3] the following is noted: cited from earlier work.
The test system of the next data set is rGH mRNA in GC cells. To be noted: 300 pM T3; Northern analysis; FIG. 7a.
For data set [4] the following is noted: nuclear but not mitochondrial or cytosol fractions; cited from earlier work.
Where [5] appears, read: cases of clinical hypothyroidism.

Experimental for rGH mRNA in GC cells: GC cells were plated at 2-4×10^6 cells/100 mm tissue culture disk obtained from Falcone, and were maintained at 37° C., in the mixture of O2 /CO2 95/5%, in DMEM 21 medium containing 10% of fetal calf serum, obtained from J. R. Scientific, Woodland, Calif., to which 100/ml of penicillin and streptomycin, and 2 mM of glutamine were added.
Preparation and Quantitation of Cytoplasmic RNA was done by plating and attachment for 12-18 hours of GC cells, followed by deinducing 4 days in 20 ml of DMEM containing 10% serum substitute solution obtained from Cell Culture Facility, UCSF, and 2% of stripped serum, prepared above. Media were replaced after the second day of deinduction.
The amount of rGH message present in aliquots of GC cell cytoplasm was determined by Northern hybridization using glyoxylated RNA (Ibid., p. 380). Equal amounts of cytoplasmic RNA were examined per lane (15 or 20 ug). HeLa cell RNA was also tested as a control for specificity and background binding. […] Some blots were also probed with a 1.6 kb Kho I fragment of the pHF1 human gamma-actin gene according to Mol. Cel. […] Hybridizations were carried out for 18-48 hours at 42° C. Blots were autoradiographed with Kodak XAR-2 film using Cronex Lightning plus intensifying screens.
After hybridization, blots were autoradiographed and analyzed using Zenith scanning densitometer.

Consider `N[C@@H](Cc1cc(I)c(Oc2ccc(O)c(I)c2)c(I)c1)C(=O)O` [^125 I-T3], for which, in data set [1] (intact GC cells, normalized to DNA content), the maximum binding capacity entry is recorded as “about 85 fmol/100 ug DNA”.
On to `CCCCNC(Cc1cc(I)c(Oc2ccc(O)c(I)c2)c(I)c1)C(=O)O` (stereo not drawn), for which the “binding to T3 (thyroid hormone) receptor, in words” value (from here on “binding to T3”) in data set [2] is given as “binds to the T3 receptor”.
Consider `CCCCc1oc2ccccc2c1C(=O)c1cc(I)c(OCCN(CC)CC)c(I)c1` [amiodarone, 2-butyl-3-[3,5-diiodo-4-(β-diethylaminoethoxy)-benzoyl]benzofuran], for which, in the data set on thyroid hormone receptor, the “thyroid hormone antagonism, in words” value is “behaves as a competitive inhibitor of triiodothyronine (T3)”. For the same compound, the “competition with labeled T3, in words” value in data set [1] is reported as “competed with labeled T3 for binding to the thyroid hormone receptors”. Besides, in data set [3] (setting [5]), the “T4 and T3 serum levels in clinical hypothyroidism” value was “normal or slightly decreased”; the “pituitary thyroid receptor hormone binding” value is recorded as “decreased pituitary thyroid receptor hormone binding”; the “thyroid-stimulating hormone (TSH) levels” value is listed as “mildly elevated”. In data set [3] (chronic administration), the thyroid side effects result is “both hyper- and hypothyroid-like side effects”. In data set [3] (in vivo), the “effect on peripheral T4 monodeiodination” value was “inhibition of peripheral T4 monodeiodination”; the “serum T4 and T3 levels” value is “changes in the concentrations of serum thyroxine (T4) and triiodothyronine (T3) levels”. Moreover, the “effect on induction of rGH mRNA” value with rGH mRNA in GC cells was “blocked the induction of rGH mRNA”.
`N[C@@H](Cc1cc(I)c(Oc2ccc(O)c(I)c2)c(I)c1)C(=O)O` [T3, triiodothyronine]: in data set [4], the “binding to cellular fractions, in words” value is recorded as “high-affinity, low capacity binding sites”. In addition, the “competition with labeled T3, in words” value in data set [1] is given as “competed with labeled T3 for binding to the thyroid hormone receptors”.
Regarding `CCCCc1oc2ccccc2c1C(O)c1cc(I)c(OCCN(CC)CC)c(I)c1` (stereo not drawn), the “binding to T3” value in data set [2] is “binds weakly to the T3 receptor”.
Turning to `COc1ccc(C(=O)n2cc(CNC(Cc3cc(I)c(Oc4ccc(O)c(I)c4)c(I)c3)C(=O)O)c3cc(OC)ccc32)cc1` (stereo not drawn), the “binding to T3” value in data set [2] is given as “binds to the T3 receptors”.
Still for that read-out and setting: as for `CCN(CC)CCOc1c(I)cc(C(=O)c2c(C)oc3ccccc23)cc1I`, the entry is “good binding to T3 receptor”.
As for `N[C@@H](Cc1cc(I)c(Oc2cc(I)c(O)c(I)c2)c(I)c1)C(=O)O` [T4, thyroxine], the “binding to cellular fractions, in words” value in data set [4] is recorded as “high-affinity, low capacity binding sites”.
Regarding `CCN(CC)CCOc1c(I)cc(C(C)=O)cc1I`, the “binding to T3” value in data set [2] was “zero binding”.
